Results reported in patent US20230257383A1, “COMPOUND SERVING AS BTK INHIBITOR, PREPARATION METHOD THEREFOR, AND USE THEREOF” (CHENGDU HYPERWAY PHARMACEUTICALS CO., LTD., priority 2020, published 2023).

Experiments:
[1] = test system: DOHH-2-luc tumor cells in the mouse brain; assay: DOHH-2-Luc intracerebral tumor drug efficacy model test; type: in vivo; details: for inhibitory effect against the tumor compared with Tirabrutinib: DOHH2 tumor model in the mouse brain, same dose of 30 mg/kg (BID), FIG. 3; for fluorescence image of brain tumor (red area = tumor size): DOHH-2-Luc intracerebral model, same dose, FIG. 4; for side effects: mouse, 30 mg/kg (BID), after 21 days of administration
Experimental: Test Example 8: DOHH-2-Luc Intracerebral Tumor Drug Efficacy Model Test
DOHH-2-luc tumor cells were cultured in vitro with RPMI 1640 medium containing 10% fetal bovine serum and 500 ng/mL puromycin in a 37° C., 5% CO2 incubator. […] Tumor cells in logarithmic growth phase were used for inoculation of tumors in vivo.
2. Inoculation of Tumor Cell and Grouping
After the animal was anesthetized by intramuscular injection of Zoletil, it was fixed on the operating table in a prone position. The skin on the top of the head was disinfected with iodine and 75% alcohol respectively, and the skin was cut about 0.5 cm along the midline of the head to expose the coronal and sagittal lines. Being located about 0.5-1.0 mm above the coronal line and about 2 mm to the right of the sagittal line by using a brain locator, a hole was drilled with a 1 mL syringe needle. The micro-injector was inserted vertically to a depth of 3 mm at the location, slowly (about 1 min) injected with 3×10^5 DOHH-2-luc tumor cells/2 μL suspension and kept for 1 min. After pulling out the needle, the needle hole was quickly sealed with bone wax, and the wound was sutured with a stapler. About the 7th day after tumor inoculation, the animals were randomly divided into 5 groups according to the body weight of the animals and the optical signal intensity of the tumor site, with 5 animals in each group.
The mice were imaged 1-2 times a week according to their state using the small animal in vivo imaging system IVIS Lumina III (Perkin Elmer). The bioluminescence imaging (BLI, unit: photons/s) signal intensity at the tumor cell inoculation site of mouse was monitored as the main indicator for evaluating tumor growth and drug efficacy. The specific operation is as follows:
The mice were intraperitoneally injected with D-luciferin (15 mg/mL, 5 μL/g according to the body weight of the experimental animal), and then inhaled anesthetized with 1%-2% isoflurane. 10 min after the injection of D-luciferin, the animals were imaged with IVIS Lumina III. The data were analyzed and processed using Living Image software (Perkin Elmer), and the optical signal intensity in ROI (regions of interest) of each animal was calculated.

TMD8 cell proliferation = assay: In vitro cell proliferation inhibitory activity test (CTG), TMD8; type: cell-based; details: Homo sapiens, TMD8, 72 h, TMD8 cells
Experimental: Test Example 4: In Vitro Cell Proliferation Inhibitory Activity Test
Cells were cultured in 1640 medium, added with 10% inactivated FBS and 1% double antibiotics, and cultured at 37° C. and 5% CO2.
(1) Cells were routinely cultured until the cell density was 80%-90%, and the cells were harvested when their number reached the requirement.
(2) Cells were resuspended with corresponding culture medium, counted, and prepared into cell suspension at appropriate density.
(3) The cell suspension was added to a 96-well plate, 100 μL per well.
(4) Cells were cultured overnight in a 37° C., 5% CO2 incubator.
(1) The compounds to be tested were diluted with DMSO to make a stock solution with a final concentration of 20 mM for later use.
(2) The stock solution was diluted 10 times from 20 mM to 2 mM with DMSO, and then diluted 3 times from 2 mM to 9 concentrations.
(3) The blank control wells were cells plus 0.5% DMSO, as high-reading control wells.
(4) Wells with no cells and only medium were used as low-reading control wells.
4: Cell treatment with compound
(1) 24 h after the cells were plated, the compounds acted alone, and 99 μL of growth medium was added to each well, followed by 1 μL of the compound prepared in step 3. The plate was shaken gently to mix uniformly, and then placed in a 37° C., 5% CO2 incubator.
(2) The cell plate was placed in an incubator for 72 h.
5: Detection by CTG method
(1) The cell plate to be tested was placed at room temperature for 30 min, and 100 μL of medium was discarded from each well.
(2) 100 μL of CTG reagent (CelltiterGlo kit) was added to each well, placed on a fast shaker for 2 min, and stood at room temperature in the dark for 30 min.
(3) The chemiluminescent signal value was read with the Envision instrument.
IC50 was calculated by using GraphPad Prism 8 software. The IC50 (half inhibitory concentration) of the compound was derived using the following nonlinear fitting formula, and the results are shown in the following table:
Y=Bottom+(Top−Bottom)/(1+10^((Log IC50−X)×HillSlope))
X: log value of compound concentration, Y: inhibition rate (% inhibition)
Inhibition rate (% inhibition)=(reading of high-reading control well-reading of compound well)/(reading of high-reading control well-reading of low-reading control well)×100

[2] = Pharmacokinetic test, oral, SD rats; type: in vivo; details: rat, plasma, oral 10 mg/kg
Experimental: Each test compound was administered orally (10 mg/kg, 3 rats in each group) to SD rats for pharmacokinetic study. […] Animals were fasted overnight before oral administration, and fed again after 4 h of administration. […] At each collection time point, 3 whole blood samples were collected at a the collection volume of about 0.2-0.3 mL. […] The collected plasma was stored at −20° C. before analysis. 20 μL of plasma sample was added into a 1.6 mL 96-well deep-well plate, added with 200 μL of working internal standard solution (the same volume of vehicle was added to the blank instead of internal standard), vortexed for 1 min, and centrifuged at 5800 rpm for 10 min. 100 μL of the supernatant was added to a 96-well injection plate for LC-MS/MS analysis.

In the case of `Nc1nccn2c(C3CCC(CO)OC3)nc(-c3ccc(C(F)(F)c4ccccc4)cc3)c12` (single isomer, unassigned) [Example 111-P1], the “inhibitory effect against the tumor compared with Tirabrutinib” value [1] is reported as “significantly better inhibitory effect against the tumor than Tirabrutinib”, the “fluorescence image of brain tumor (red area = tumor size)” value [1] is reported as “very good inhibitory effect against the tumor, with almost no red area” and the side effects [1] is reported as “no side effects had been found”.

For `Nc1nccn2c(C34CCC(CO)(CC3)OC4)nc(-c3ccc(C(F)(F)c4ccccc4)cc3)c12` [Example 125], the “inhibitory effect against the tumor compared with Tirabrutinib” value [1] was “significantly better inhibitory effect against the tumor than Tirabrutinib”, the “fluorescence image of brain tumor (red area = tumor size)” value [1] was “very good inhibitory effect against the tumor, with almost no red area” and the side effects [1] was “no side effects had been found”. The IC50 (TMD8 cell proliferation) was 92.4 nM.

In the case of `Nc1nccn2c(C34CCC(CO)(CC3)OC4)nc(-c3ccc(C(F)(F)c4ccccc4F)cc3)c12` [Example 145], the AUC(0-inf) [2] is reported as 17200 ng·h/mL, the Cmax [2] is reported as 1550 ng/mL and the half-life ([2]; read-out: T½ (converted)) is reported as 2.78 h.
